Measurements from paper PMC6591177, “Small Molecule IL-36γ Antagonist as a Novel Therapeutic Approach for Plaque Psoriasis” (Scientific Reports, 2019).
Entries after “also recorded” stand apart in the source; their conditions may differ.

How the values were obtained:
[1] = tested on: human IL-36γ evoked CXCL1 release from Human HaCaT cells; assay: human IL-36γ evoked CXCL1 release, human HaCaT cells; assay type: cell-based; conditions: ± S.D.
Description: The immortalized human keratinocyte cell line HaCaT and mouse fibroblast NIH-3T3 cell line were maintained in culture in DMEM with 10% fetal bovine serum and 1% penicillin/streptomycin added (Sigma). Cells were seeded in 96-well tissue culture plates (Corning) at 25,000 cells per well and allowed to adhere and recover overnight at 37 °C in an incubator. Cells were rinsed with PBS (Sigma) and treated with cytokines diluted in 200 μL/well of the medium (DMEM with 0.5% FBS and 1% penicillin/streptomycin) as indicated. In inhibition mode, the agonist concentration used was at the EC80 for chemokine production and the cells were pre-treated with inhibitors for 30 min prior to adding the agonist. After 24 h of treatment, supernatants were collected and IL-8 and CXCL1[28] levels were assessed using a custom immunoassay (Meso Scale Discovery). EC50/IC50 values were estimated from a four-parameter logistic fit using Prism software (GraphPad).

[2] = target: T1, human IL-36γ (Homo sapiens, UniProt Q9NZH8); assay: Isothermal titration calorimetry; assay type: binding; conditions: 25 °C, pH 7.5; read-out: KD (ITC)
T1 construct: His6-SUMO-human IL-36γ (18–169); His6-SUMO (N, cleaved yes); made in house; host or cells: E. coli BL21 (DE3)
T1 sequence (Q9NZH8 18-169): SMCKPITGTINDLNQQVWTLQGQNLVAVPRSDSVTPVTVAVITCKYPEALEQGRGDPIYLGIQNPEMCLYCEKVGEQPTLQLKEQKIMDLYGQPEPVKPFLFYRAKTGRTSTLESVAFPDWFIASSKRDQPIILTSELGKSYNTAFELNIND
Description: All experiments were carried out on a MicroCal^TM Auto-ITC200 at 25 °C in 50 mM HEPES (pH = 7.5), 150 mM NaCl, 0.5 mM TCEP, 2% DMSO. IL-36γ protein solution was buffer exchanged by gel filtration into the isothermal titration calorimetry (ITC) buffer and diluted to 40 µM. The titrations were conducted using an initial injection of 0.2 µL followed by 19 identical injections of 2 µL of 400 µM compound solution. Thermodynamic parameters were calculated using ∆G = ∆H − T∆S = −RTlnKB, where ∆G, ∆H and ∆S are the changes in free energy, enthalpy and entropy of binding respectively. A single binding site model was employed.

[3] = target: T2, mouse IL-36α (Mus musculus, UniProt Q9JLA2); assay: Cross-reactivity to mouse IL-36α; assay type: binding
T2 sequence (Q9JLA2 8-160): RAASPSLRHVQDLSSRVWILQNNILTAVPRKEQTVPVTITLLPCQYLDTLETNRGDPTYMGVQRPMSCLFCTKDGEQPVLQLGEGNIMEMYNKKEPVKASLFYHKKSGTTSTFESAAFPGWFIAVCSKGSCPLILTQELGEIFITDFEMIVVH

[4] = target: T3, human IL-36α (Homo sapiens, UniProt Q9UHA7); assay: Thermal shift assay / affinity, human IL-36α; assay type: binding; conditions: thermal shift assay at 100 μM (Supplementary Fig. 4)
T3 construct: using recombinant truncated proteins
T3 sequence (Q9UHA7 6-158): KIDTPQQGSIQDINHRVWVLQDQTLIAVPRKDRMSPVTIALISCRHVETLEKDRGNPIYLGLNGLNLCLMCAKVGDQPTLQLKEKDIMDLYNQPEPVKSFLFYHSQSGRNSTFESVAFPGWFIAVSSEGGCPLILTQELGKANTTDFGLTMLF
Description: Thermal shift assays[30] were performed on a Roche LightCycler 480 instrument using Sypro Orange Dye (Invitrogen). Reactions consisted of 0.5–2 µM purified recombinant protein in PBS, pH 7.4, a 1/500 dilution of the stock Sypro Orange reagent, and 100 µM test compounds, resulting in a final DMSO concentration of 1%. The samples were heated from 20 °C to 95 °C at a rate of 0.25 °C per second.

[5] = Drug plasma levels / oral exposure in mice; conditions: mouse, in vivo
[6] = target: T4, mouse IL-36γ (Mus musculus, UniProt Q8R460); assay: Affinity for mouse IL-36γ; assay type: binding
T4 sequence (Q8R460 13-164): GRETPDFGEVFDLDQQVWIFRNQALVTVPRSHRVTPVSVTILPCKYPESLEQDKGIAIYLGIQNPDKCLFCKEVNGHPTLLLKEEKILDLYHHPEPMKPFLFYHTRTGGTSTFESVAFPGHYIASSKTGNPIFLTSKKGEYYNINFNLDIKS

- Kd [2]: 67.6 ± 6 nM
- cross-reactivity to mouse IL-36α [3]: lack of species cross-reactivity
- oral bioavailability [5]: orally bioavailable
- affinity for mouse IL-36γ [6]: does not show affinity
Compound: COC(c1ccccc1)(c1ccccc1)[C@H](Oc1nc(C)cc(-c2ccc(C)c(N)c2)n1)C(=O)O [Compound A-552]
- Ki [1]: 31 ± 22 nM
- binding / affinity to human IL-36α [4]: do not bind; also recorded: does not show affinity
